Measurements from US9119805B2, “Therapy and prevention of problem drinking” (THE UNIVERSITY OF SYDNEY, priority 2009, dated 2015).
“Also recorded” adds a separate entry of the source.

Key:
P rats = assay: Lickometer choice of Vodka Cruiser versus 3% sucrose after acute oxytocin in alcohol-exposed P rats (Example 1); type: in vivo, rat
Source text: P rats (8 female and 8 male P rats) were provided by Professor Andrew Lawrence at the Howard Florey Institute, Melbourne, Australia. The animals were of adolescent age (i.e., 28 days-old) on arrival at the animal house. Animals were housed in same-sex cages at a density of 3-4 rats per cage. Over the following 2 months, animals received intermittent exposure to various alcoholic beverages in their home cages e.g., white wine, red wine, beer, Vodka Cruiser, Bacardi Breezer, but were alcohol-free for the month preceding testing.
Testing occurred in a lickometer apparatus. Rats were placed in a small metal cage where they have a choice of two tubes for supply of liquids, wherein the tube were designed such that every third lick at one tube delivered a small drop (0.07 ml) of 3% (w/v) sucrose solution, and every third lick at the other tube delivered a small amount of alcohol-containing beverage, in particular Vodka Cruiser (Raspberry Flavor), containing 5.0% (w/v) ethanol. Rats were exposed daily to 70 min sessions in the lickometer until their intake of sucrose and/or alcohol and preferences for these beverages had stabilized.
One-half of the rats being tested were injected intra-peritoneally (I/P) with a single dosage of 0.3 mg/kg oxytocin, administered 10 min before their daily drinking session. The following day, these animals received a normal baseline test session with no further oxytocin dosing. The following day, one-half of the animals were administered I/P with 1 mg/kg oxytocin 10 min before the test session. Normal drinking sessions then continued for a further 4 days. During the same period, the other one-half of the rats were administered a placebo (vehicle) lacking oxytocin. Animals receiving the placebo were treated with oxytocin in exactly the same sequence as the treatment group, commencing one week after the start of testing. A final test to determine alcohol intake and alcohol preference was conducted after 55 days, to determine whether or not oxytocin induced lasting changes in drinking behavior.

Male Wistar rats [1] = assay: Emergence test of anxiety after oxytocin pre-treatment (Example 3); type: in vivo, rat
Procedure: (§1) Male Wistar rats (n=48) were obtained from the Animal Resource Centre (ARC), Perth, Western Australia, Australia. The animals were of early adolescent age (i.e., 21 days-old) on arrival and were young adults (i.e., 33 days-old) when oxytocin therapy commenced. The animals were housed and maintained as described in the preceding examples, except that animals were moved to individual housing during chronic exposure to alcohol.
(§2) One-half of the rats (n=24) were administered 10 injections of 1 mg/kg oxytocin (1×I/P injection per day for a total of 10 days). The other half of the rats (n=24) received equivalent injections of placebo/vehicle lacking oxytocin.
(§3) At 7 days following final injection of oxytocin, all rats were tested in an emergence test of anxiety. This 5 min test measures the willingness of rats to leave a small dark hide box and emerge into a brightly lit open field. Rats normally avoid brightly lit and open spaces. Three days later, the animals were tested in social interaction tests which measure the willingness of rats to engage in social behavior during a 10 min session in a darkened arena where they meet an unknown rat that has received the same drug treatment.

Male Wistar rats [2] = assay: Social interaction test after oxytocin pre-treatment (Example 3); type: in vivo, rat
Procedure: as §1, §2, §3

[3] = system: alcohol-dependent adults and non-dependent problem drinkers; assay: Human Study 1: intranasal oxytocin, stress and alcohol-related cues; type: in vivo; conditions: during presentation of stress and alcohol cues, versus placebo
Procedure: The underlying mechanisms of intranasal oxytocin during exposure to stress and alcohol related cues in adult alcohol-dependent and adult non-dependent problem drinkers are determined.
In particular, at least twenty male and female adults reporting alcohol dependence according to the Diagnostic and Statistical Manual of Mental Disorders, Fourth Edition (DSM-IV) as determined by the Structured Clinical Interview for the DSM-IV (SCID-IV) are recruited from the community to participate in a laboratory based investigation on the role of oxytocin in stress-related alcohol craving. […]
Subjects returning to the Brain and Mind Research Institute on the afternoon of the final day of testing are evaluated. Bloods and saliva are taken, and plasma oxytocin and cortisol levels and saliva cortisol are determined and compared to baseline levels before commencement of therapy. […] Changes in mood, drinking behavior and neuropsychology are evaluated for both groups by comparison with baseline evaluations. Changes in smoking behavior are evaluated by FTND testing and comparison with baseline evaluations. HR and BP records over the period and at cessation are also determined and compared to baseline levels before commencement of therapy. […]

[4] = acute oxytocin 0.3 and 1 mg/kg I/P, 10 min before 70 min session
[5] = 10 x 1 mg/kg I/P, tested 7 days after final injection, versus vehicle
[6] = 10 minute social interaction test, versus vehicle

CC[C@H](C)[C@@H]1NC(=O)[C@H](Cc2ccc(O)cc2)NC(=O)[C@@H](N)CSSC[C@@H](C(=O)N2CCC[C@H]2C(=O)N[C@@H](CC(C)C)C(=O)NCC(N)=O)NC(=O)[C@H](CC(N)=O)NC(=O)[C@H](CCC(N)=O)NC1=O [oxytocin]
duration of the reduction in alcohol preference and alcohol intake (P rats; P rats, after 1 mg/kg oxytocin): 7-8 weeks
intake of Vodka Cruiser (alcohol consumption) (P rats; [4]): significant reduction; also recorded: reduced their alcohol consumption significantly
intake of sucrose solution (P rats; [4]): significant reduction
time intake of the alcoholic beverage remained suppressed (P rats; following oxytocin): at least 55 days
reduction of baseline alcohol intake (P rats; male and female P rats, 2 days following treatment, FIG. 1): about 50%
reduction in alcohol consumption, comparison between the sexes (P rats; male versus female P rats): comparable between the sexes
preference for alcohol (Vodka Cruiser versus 3% sucrose) (P rats; treated male and female P rats): shift towards a preference for alcohol-free solution; also recorded: reduced preference for alcohol
emergence from hide into brightly-lit open field (Male Wistar rats [1]; [5]): greater likelihood of emergence into the open field; also recorded: emerged more rapidly
time hiding (Male Wistar rats [1]; [5]): reduced time hiding; also recorded: significantly less time hiding
anxiety (Male Wistar rats [1]; relative to control rats): reduced anxiety
number of social contacts (Male Wistar rats [2]; [6]): significantly higher numbers of social contacts; also recorded: increased numbers of social contacts
proximal time (time within one and half body lengths of another rat) (Male Wistar rats [2]; [6]): significantly higher; also recorded: increased time spent in close proximity
social anxiety (Male Wistar rats [2]; test animals after oxytocin therapy): decreased social anxiety
anxiety and stress [3]: lower
subjective craving for alcohol [3]: lower
